Test results taken from patent US11478527B2, “FGF receptor ligands for treating diabetes and obesity” (Albert Einstein College of Medicine, priority 2015, dated 2022).

What was measured:
[1] = system: hypothalamic AGRP/NPY neurons; settings: cited from earlier work
AGRP/NPY neurons = test: Colocalization of phospho-ERK1/2 with Npy-GFP in ARC after intraperitoneal FGF19; assay type: in vivo; settings: 24 h fasted Npy-hrGFP ob/ob mice
Procedure: FIG. 2A-2E. ERK1/2 signaling involved in FGF19-glucose metabolism regulation.
The neuronal population targeted by FGF19 was investigated. 24 h fasted Npy-hrGFP transgenic mice deficient in leptin (Npy-hrGFP ob/ob), in which AGRP/NPY neurons in ARC appear GFP+, were injected intraperitoneally with FGF19 and the colocalization between phospho-ERK1/2 and Npy-GFP was analyzed in ARC. […] Overall, the data support that central FGF19 improved glucose metabolism required activation of ERK1/2 signaling and that AGRP/NPY neurons are a likely mediator of FGF19 action.

HFD-fed mice [2] = settings: FGF19 injected centrally and peripherally; previously shown (3); cited from earlier work
POMC neurons = test: Colocalization of phospho-ERK1/2 with Pomc-eGFP in ARC after intraperitoneal FGF19; assay type: in vivo; settings: 24 h fasted Pomc-eGFP ob/ob mice
HFD-fed mice [3] = settings: U0126 thirty minutes before FGF19 injection
Procedure: ERK1/2 signaling involved in FGF19-glucose metabolism regulation. […] Mice were treated twice with FGF19 (starting 16 hours after fasting and 6.5 hours apart) and tissues were collected 90 minutes after the last ip injection (2C) Analysis of co-localization between Npy-hrGFP positive neurons (lighter gray) and p-ERK1/2 positive cells (darker gray) in 24 h fasted ob/ob Npy-hrGFP mice following intraperitoneal injections of FGF19. (2D) Quantification of Npy-hrGFP positive neurons that colocalize with pERK1/2 staining in ARC (Bregma −1.7 to −1.9 mm) of ob/ob Npy-hrGFP mice (10 sections from 3 mice were examined in each group). (2E) Representative sections showing absence of co-localization between Pomc-eGFP positive neurons (lighter gray) and p-ERK1/2 positive cells (darker gray) in 24 h fasted ob/ob Pomc-eGFP mice following intraperitoneal injections of FGF19. *P<0.05, ***P<0.005.
It was assessed whether increased ERK1/2 activation could mediate the glucose lowering effect of FGF19.

8 month old outbred mice = test: Oral glucose tolerance test after intraparenchymal injection of peptide into the mediobasal hypothalamus; assay type: in vivo
Procedure: A peptide of 13 amino acids ([…]) (SEQ ID NO:4) was synthesized based on the conserved sequences between the FGF8 and FGF17 b splice isoforms and the helical nature of this region of FGF8 based on a published crystal structure. This peptide was injected intraparenchymally into the mediobasal hypothalamus of 8 month old outbred mice. Having been fasted overnight, the mice were subjected to an oral glucose tolerance test (2 mg/g of glucose) using a crossover design to obtain a control condition. […] With aCSF, the median area under the curve for the 3 hour GTT was 43,747 mg-min/dL whereas it was […] with F8b13. Blood glucose concentrations were not different before the glucose load. These FGF derived peptide antagonists are useful as therapeutic agents in diabetes and obesity conditions.

Molecule: FGF19: endocrine fibroblast growth factor
- induction of AGRP and NPY mRNA ([1]; mice fasted overnight): prevented the induction of AGRP and NPY mRNA
- ERK1/2 activation in hypothalamic AGRP/NPY neurons ([1]; mouse, in vivo): activated ERK1/2
- FOS in hypothalamic AGRP/NPY neurons ([1]; mouse, in vivo): FOS was reduced
- effects on POMC neurons ([1]; mouse, in vivo): no effects
- colocalization of FGF19-induced pERK1/2 staining with NPY-GFP+ neurons in ARC (AGRP/NPY neurons): colocalized with NPY-GFP+ neurons
- glucose handling in obese mice (ob/ob) and high fat fed mice (HFD-fed mice [2]): could improve glucose handling
- colocalization of Pomc-eGFP positive neurons with pERK1/2 staining in ARC (POMC neurons): do not colocalize

Molecule: N#CC(=C(/N)Sc1ccccc1N)/C(C#N)=C(\N)Sc1ccccc1N [U0126]
- effect of U0126 pre-treatment on the glucose lowering effect of FGF19 (HFD-fed mice [3]): blocked the glucose lowering effect of FGF19

Molecule: PNFTQHVREQSLV (peptide fragment based on human sequence) [F8b13]
- glucose tolerance compared to the same mice after aCSF (8 month old outbred mice; oral GTT 2 mg/g glucose, overnight fast, crossover design): improved glucose tolerance
- median area under the curve for the 3 hour GTT (8 month old outbred mice; oral GTT 2 mg/g glucose, overnight fast, crossover vs aCSF, intraparenchymal injection into mediobasal hypothalamus): 33500 mg·min/dL
- blood glucose concentrations before the glucose load (8 month old outbred mice; overnight fasted, vs aCSF): not different
